This experiment can be described thus: Glucose challenge model. In kind it is in vivo, male CD1 mice. The note with it: mice, IP glucose challenge; 10 μg IP injection. An excerpt: The glucose challenge model used to test SEQ ID NO: 70-Exenatide was designed to examine the capacity of a GLP-1-like activity to enhance the rate of recovery from a glucose excursion.
The male CD1 mice used in the glucose challenge test were 9-16 weeks of age. To minimize stress due to handling, animals were acclimatized to the environment, blood sampling, and dosing procedures for 1 week prior to the start of experiments, as plasma glucose can be responsive to handling stress. Mice were fasted for 18 h prior to study. […] Blood samples were taken at t=0, 15, 30, 45, 60 min; 2, 3, and 4 hr. Blood glucose measurements were made using 5 μL blood sample taken from the tail with a commercial glucometer that was calibrated with glucose standards prior to the start of the study.

In the case of Exenatide (1-40)-Gly, the “time at which correction of the blood glucose excursion began” value came to 15 min and the “time by which the correction profile was completed” value is listed as at most 120 min.
